Here are results for 16 molecules from ChEMBL document CHEMBL5113380, “Functionalized quinoxalinones as privileged structures with broad-ranging pharmacological activities” (Eur J Med Chem, 2022).

For data set [1], the target named is T1, Phospholipase A2, membrane associated (Homo sapiens, UniProt P14555).
T1 sequence (P14555 whole entry): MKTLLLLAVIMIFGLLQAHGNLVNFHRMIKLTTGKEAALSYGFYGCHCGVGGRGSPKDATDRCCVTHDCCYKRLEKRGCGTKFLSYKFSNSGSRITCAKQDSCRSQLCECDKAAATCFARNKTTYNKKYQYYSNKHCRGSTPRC
In words: Inhibition of human PLA2G2A.

Data set [2] deals with T2, Phospholipase A2 group V (Homo sapiens, UniProt P39877).
T2 sequence (P39877 whole entry): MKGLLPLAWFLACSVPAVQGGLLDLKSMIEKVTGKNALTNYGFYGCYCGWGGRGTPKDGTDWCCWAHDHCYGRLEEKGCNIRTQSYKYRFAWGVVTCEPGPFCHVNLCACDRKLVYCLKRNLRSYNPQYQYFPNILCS
In words: Inhibition of human PLA2G5.

The target in data set [3] is T3, Group 10 secretory phospholipase A2 (Homo sapiens, UniProt O15496).
T3 sequence (O15496 whole entry): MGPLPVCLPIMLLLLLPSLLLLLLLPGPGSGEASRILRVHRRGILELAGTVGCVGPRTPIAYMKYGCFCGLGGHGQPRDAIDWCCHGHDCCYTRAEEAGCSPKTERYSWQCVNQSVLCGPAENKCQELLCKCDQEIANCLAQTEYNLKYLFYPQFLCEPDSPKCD
In words: Inhibition of human PLA2G10.

Data set [4] concerns the target T4, Group XIIA secretory phospholipase A2 (Homo sapiens, UniProt Q9BZM1).
T4 sequence (Q9BZM1 whole entry): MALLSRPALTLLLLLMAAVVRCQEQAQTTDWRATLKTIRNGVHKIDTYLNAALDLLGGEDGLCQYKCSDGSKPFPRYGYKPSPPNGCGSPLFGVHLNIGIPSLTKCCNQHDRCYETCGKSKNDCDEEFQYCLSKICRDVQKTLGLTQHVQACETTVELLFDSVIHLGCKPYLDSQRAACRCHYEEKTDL
As to the kind of experiment: Inhibition of human PLA2G12A.

The target in data set [5] is Phospholipase A2, major isoenzyme (Sus scrofa, UniProt P00592). In words: Inhibition of porcine PLA2G1B.
Data set [6] addresses T5, Alpha amylase (Homo sapiens, UniProt P0DUB6).
T5 sequence (P0DUB6 whole entry): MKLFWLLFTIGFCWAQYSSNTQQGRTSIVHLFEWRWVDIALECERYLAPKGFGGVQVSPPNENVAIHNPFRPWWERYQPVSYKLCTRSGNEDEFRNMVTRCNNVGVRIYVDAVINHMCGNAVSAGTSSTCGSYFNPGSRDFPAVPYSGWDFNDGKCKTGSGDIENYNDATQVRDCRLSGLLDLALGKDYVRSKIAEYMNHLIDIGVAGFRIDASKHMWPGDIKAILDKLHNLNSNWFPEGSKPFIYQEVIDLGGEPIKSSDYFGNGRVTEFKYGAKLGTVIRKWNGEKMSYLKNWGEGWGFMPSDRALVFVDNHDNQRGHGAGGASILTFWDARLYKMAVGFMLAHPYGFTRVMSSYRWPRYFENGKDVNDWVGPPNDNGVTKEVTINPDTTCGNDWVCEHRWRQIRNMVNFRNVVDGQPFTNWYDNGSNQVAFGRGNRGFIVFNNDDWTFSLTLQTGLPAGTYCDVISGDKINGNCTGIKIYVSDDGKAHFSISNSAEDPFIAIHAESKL
As to the kind of experiment: Inhibition of alpha-amylase (unknown origin).

Data set [7] deals with Bacillus cereus. In words: Antibacterial activity against Bacillus cereus. The class given is functional.
In data set [8] the test system is Geobacillus stearothermophilus. As to the kind of experiment: Antibacterial activity against Bacillus stearothermophilus. Type of data set: functional.
Data set [9] has as its system Staphylococcus aureus. As to the kind of experiment: Antibacterial activity against Staphylococcus aureus. The class given is functional.
Data set [10] has as its system Shigella dysenteriae. As to the kind of experiment: Antibacterial activity against Shigella dysenteriae. Type of data set: functional.
Data set [11] concerns Klebsiella pneumoniae. As to the kind of experiment: Antibacterial activity against Klebsiella pneumoniae. Type of data set: functional.
The subject of data set [12] is Bacillus anthracis. In words: Antibacterial activity against Bacillus anthracis. The class given is functional.
Data set [13] has as its system Bacillus subtilis. As to the kind of experiment: Antibacterial activity against Bacillus subtilis. Type of data set: functional.
Data set [14] deals with Escherichia coli. As to the kind of experiment: Antibacterial activity against Escherichia coli. The class given is functional.
Data set [15] relates to Anopheles sp. As to the kind of experiment: Larvicidal activity against Anopheles at 0.5 ug/ml. The class given is functional. The settings on record: dose 0.5 µg/ml.
Data set [16] has as its system Anopheles sp. As to the kind of experiment: Larvicidal activity against Anopheles at 0.25 ug/ml. Type of data set: functional. The following applies: dose 0.25 µg/ml.
Data set [17] has as its system Anopheles sp. In words: Larvicidal activity against Anopheles at 0.1 ug/ml. The following applies: dose 0.1 µg/ml. Type of data set: functional.
The subject of data set [18] is Anopheles sp. As to the kind of experiment: Larvicidal activity against Anopheles at 1 ug/ml. The class given is functional. The settings on record: dose 1.0 µg/ml.
Data set [19] deals with Candida. As to the kind of experiment: Antifungal activity against Candida species. The class given is functional.
The test system of data set [20] is Pseudomonas aeruginosa. In words: Antibacterial activity against Pseudomonas aeruginosa. The class given is functional.
Data set [21] can be described thus: Ratio IC50 for cytotoxicity against rat myoblast L6 cells over IC50 for antitrypanosomal activity against Trypanosoma brucei. The class given is toxicity, cell-based. The settings on record: read-out: Ratio IC50.
Data set [22] has as its system Trypanosoma brucei. In words: Antitrypanosomal activity against Trypanosoma brucei. Type of data set: functional, organism-based.
Data set [23] is described as follows: Cytotoxicity against rat myoblast L6 cells. Type of data set: toxicity, cell-based.
The test system of data set [24] is HeLa S3. In words: Cytotoxicity against human HeLa S3 cells. The class given is functional, cell-based.
Data set [25] addresses Glutamate [NMDA] receptor. In words: Displacement of [3H]NMDA from NMDA receptor (unknown origin). The class given is protein-complex assay, Homo sapiens.
The target of data set [26] is Glutamate [NMDA] receptor. In words: Displacement of [3H]L-689560 from NMDA receptor (unknown origin). The class given is protein-complex assay, Homo sapiens. On the technique in general: Loss of bound radioactivity is the signal in a displacement assay; it reports binding, not function.
The nature of data set [27]: Aqueous solubility of the compound. The following applies: buffer. Type of data set: physicochemical.
In data set [28] the test system is Staphylococcus aureus. As to the kind of experiment: Antibacterial activity against methicillin-resistant Staphylococcus aureus. The class given is functional.
For data set [29], the system named is Staphylococcus aureus. In words: Antibacterial activity against methicillin-sensitive Staphylococcus aureus. Type of data set: functional.
Data set [30] deals with Glutamate [NMDA] receptor. In words: Displacement of [3H]CGP-39653 from NMDA receptor (unknown origin). Type of data set: protein-complex assay, Homo sapiens.
A short description of data set [31]: Displacement of [3H]AMPA from NMDA receptor (unknown origin). The class given is protein-complex assay, Homo sapiens.
Data set [32] has as its target Glutamate [NMDA] receptor. In words: Displacement of [3H]kainic acid from NMDA receptor (unknown origin). The class given is protein-complex assay, Homo sapiens.
Data set [33] addresses Glutamate [NMDA] receptor. As to the kind of experiment: Displacement of [3H]DCKA from NMDA receptor (unknown origin). Type of data set: protein-complex assay, Homo sapiens.
Data set [34] deals with Trypsin (Homo sapiens, UniProt P07477+P07478+P35030). As to the kind of experiment: Inhibition of trypsin (unknown origin). The class given is protein assay.
The species entered for data set [35] is Homo sapiens. In words: Ratio IC50 for inhibition of JNK2 (unknown origin) over JNK3 (unknown origin).
For data set [36], the species on record is Homo sapiens. In words: Ratio IC50 for inhibition of JNK1 (unknown origin) over JNK3 (unknown origin).
Data set [37] can be described thus: Metabolic stability in rat liver microsomes assessed as half-life. The class given is ADME, Microsome.
Data set [38] is filed under the species Homo sapiens. As to the kind of experiment: Binding affinity to Creatine kinase (CK) (unknown origin) relative to control.
For data set [39], the species on record is Homo sapiens. As to the kind of experiment: Binding affinity to estrogen receptor (unknown origin) relative to control.
A short description of data set [40]: Binding affinity to estrogen receptor (unknown origin). Also on record: species or system Homo sapiens.
The nature of data set [41]: Binding affinity to Creatine kinase (CK) (unknown origin). Details: species or system Homo sapiens.
Data set [42] is described as follows: Aqueous solubility of the compound at pH 7.4. The settings on record: buffer. The class given is physicochemical.
Data set [43] deals with Kappa-type opioid receptor (Homo sapiens, UniProt P41145). In words: Antagonist at KOR expressed in human U2OS cells measured by High content imaging based beta-arrestin translocation assay. Type of data set: cell-based.

pEC50, pIC50, pKi: −log10 of the molar value. Converted amounts (≈) assume the structure as drawn.

Phospholipase A2, major isoenzyme, sequence (P00592 whole entry): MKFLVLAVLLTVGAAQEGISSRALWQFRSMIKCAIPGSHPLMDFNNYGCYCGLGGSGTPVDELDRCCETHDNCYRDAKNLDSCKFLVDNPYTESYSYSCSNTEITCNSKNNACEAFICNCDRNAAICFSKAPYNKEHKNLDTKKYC
Kappa-type opioid receptor, sequence (P41145 whole entry): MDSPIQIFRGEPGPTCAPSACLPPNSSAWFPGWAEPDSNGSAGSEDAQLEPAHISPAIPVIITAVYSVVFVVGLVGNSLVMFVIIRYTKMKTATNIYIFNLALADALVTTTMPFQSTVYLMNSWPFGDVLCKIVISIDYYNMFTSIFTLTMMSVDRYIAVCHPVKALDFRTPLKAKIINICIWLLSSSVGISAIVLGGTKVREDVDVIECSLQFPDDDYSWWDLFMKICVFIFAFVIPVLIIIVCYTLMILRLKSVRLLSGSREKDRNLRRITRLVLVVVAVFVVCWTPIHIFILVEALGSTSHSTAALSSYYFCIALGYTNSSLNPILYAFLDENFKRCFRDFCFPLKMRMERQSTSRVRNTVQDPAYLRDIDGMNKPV

Take `O=c1[nH]c2ccccc2n2c(-c3ccc(O)cc3O)ccc12`: the pIC50 – broadly, the negative decadic logarithm of the IC50, by convention in mol/L – in data set [1] is 5.88; in [2], 5.98; in [3], 6.21; in data set [4] it was 6.04; in data set [5], 4.83. Also, the IC50 – broadly, the concentration needed to halve the response being measured – in data set [6] was found to be 1087.43 µM.

Turning to `O=c1[nH]c2ccccc2n2c(-c3ccc([N+](=O)[O-])cc3[N+](=O)[O-])ccc12`, the pIC50 in data set [1] is 6.12; in [2], 5.82; in data set [3] it was 5.98; in [4], 5.59; in [5], 4.87. This molecule also had an IC50 in data set [6] of 806.19 µM.

In the case of `C/C(=N\Nc1nc2ccccc2[nH]c1=O)c1cc2cc(Cl)ccc2oc1=O`, the minimum inhibitory concentration (MIC) (usually the lowest concentration found to suppress growth) was determined as 7.8 µg/mL (≈ 20.5 µM) in data set [7]; 7.8 µg/mL (≈ 20.5 µM) in [8]; 15.6 µg/mL (≈ 41 µM) in data set [9]; 15.6 µg/mL (≈ 41 µM) in data set [10]; 7.8 µg/mL (≈ 20.5 µM) in [11]; 7.8 µg/mL (≈ 20.5 µM) in [12]. Also, the MIC in [13] and in data set [14] was 7.8 µg/mL (≈ 20.5 µM) in each case.

Regarding `COc1ccc2nc(-c3ccccc3)c(=O)n(CC#N)c2c1`, the Activity was 66.7% in data set [15], 66.7% in data set [16], 60% in data set [17] and 73.7% in data set [18].

Take `O=c1[nH]c2cc3cccnc3c(Cl)c2nc1CBr`: the MIC in [9], in data set [14], in data set [19] and in [20] was 31.2 µg/mL (≈ 96.3 µM) each time.

On to `O=C1Nc2cc([N+](=O)[O-])ccc2N2CCCC12` (stereo not drawn), for which the selectivity ratio in data set [21] stood at 17.4. Besides, the results for the pIC50 in data set [22] and in data set [23] were 5.57 and 4.33, respectively.

In [24], `N#Cc1ccc2c(c1)N1CCCCC1C(=O)N2` (stereo not drawn) had a pIC50 of 5.12.

For the molecule `CCC(c1c(Cl)c(Cl)cc2nc(O)c(O)nc12)n1cnnc1` (stereo not drawn), the pIC50 in data set [25] is 7.05; in data set [26], 8.59. In data set [27], the solubility (as a rule, the dissolved amount per volume that the medium holds) was more than 5000 µg/mL.

For `COc1ccc2ncc(=O)n(CC[C@H]3OC[C@H](NCc4cc5c(cn4)OCCC5)CO3)c2c1`, the MIC in data set [28] amounted to 32 µg/mL (≈ 70.7 µM); in [29] it was 8.16 µg/mL (≈ 18 µM).

Take `O=C(CC1CCc2cc(Br)cc3[nH]c(=O)c(=O)n1c23)Nc1ccccc1` (stereo not drawn): the pIC50 is less than 4.60 in data set [30], 5.34 in data set [31] and less than 4.60 in [32]. In addition, the pKi (as a rule, the negative decadic logarithm of the Ki, by convention in mol/L) in data set [33] is 8.59.

In turn, `Cn1c(=O)c(Cc2ccc(C(=N)N)cc2)nc2cc(C3(C(=O)N4CCCC4C(=O)NCC(=O)O)CC3)ccc21` (stereo not drawn) came in with an IC50 in [34] of 2.4 µM.

For the molecule `O=C1Nc2ccccc2N/C1=C\C(=O)c1cccc2ccccc12`, the Ratio IC50 in data set [35] and in data set [36] was more than 400 throughout.

Take `CN1CC(=O)N(C)c2cc([N+](=O)[O-])ccc21`: in data set [21], the selectivity ratio was 21.6. Besides, the pIC50 in data set [22] was 5.44; in data set [23], 4.11.

Turning to `CC[C@H]1C(=O)N(CC)c2ccc(F)cc2N1C(=O)c1ccc(O)cc1O`, the half-life (as a rule, the time needed for the level to fall by half in the phase considered) in data set [37] is more than 30 min. Besides, the figures for the Activity in [38] and in data set [39] were 44% and 92%, respectively. This molecule also had a pIC50 in data set [40] of 8.27. Also, the pEC50 (usually the negative decadic logarithm of the EC50, by convention in mol/L) in data set [41] is 7.30. In [42], this molecule had a solubility of more than 100 µg/mL.

Regarding `COc1ccc(N2CCN(CCCNC(=O)Cn3c(=O)c4cccn4c4cccnc43)CC2)cc1`, the pIC50 in data set [43] is 6.76.

Turning to `C=Cn1c(=O)c(-c2ccccc2)nc2ccc(OC)cc21`, the Activity came out at 100% in data set [15], 100% in [16], 80% in data set [17] and 100% in data set [18].
